Test results: PMC10176470, “Engaging a Non-catalytic Cysteine Residue Drives Potent and Selective Inhibition of Caspase-6” (Journal of the American Chemical Society, 2023)

Columns and labels:
Type in all cases: cell-based
[1] = biological target: T1, proteins of HEK293T cells transiently overexpressing caspase-6 (Homo sapiens, UniProt P11498)
T1 sequence (P11498 21-1178): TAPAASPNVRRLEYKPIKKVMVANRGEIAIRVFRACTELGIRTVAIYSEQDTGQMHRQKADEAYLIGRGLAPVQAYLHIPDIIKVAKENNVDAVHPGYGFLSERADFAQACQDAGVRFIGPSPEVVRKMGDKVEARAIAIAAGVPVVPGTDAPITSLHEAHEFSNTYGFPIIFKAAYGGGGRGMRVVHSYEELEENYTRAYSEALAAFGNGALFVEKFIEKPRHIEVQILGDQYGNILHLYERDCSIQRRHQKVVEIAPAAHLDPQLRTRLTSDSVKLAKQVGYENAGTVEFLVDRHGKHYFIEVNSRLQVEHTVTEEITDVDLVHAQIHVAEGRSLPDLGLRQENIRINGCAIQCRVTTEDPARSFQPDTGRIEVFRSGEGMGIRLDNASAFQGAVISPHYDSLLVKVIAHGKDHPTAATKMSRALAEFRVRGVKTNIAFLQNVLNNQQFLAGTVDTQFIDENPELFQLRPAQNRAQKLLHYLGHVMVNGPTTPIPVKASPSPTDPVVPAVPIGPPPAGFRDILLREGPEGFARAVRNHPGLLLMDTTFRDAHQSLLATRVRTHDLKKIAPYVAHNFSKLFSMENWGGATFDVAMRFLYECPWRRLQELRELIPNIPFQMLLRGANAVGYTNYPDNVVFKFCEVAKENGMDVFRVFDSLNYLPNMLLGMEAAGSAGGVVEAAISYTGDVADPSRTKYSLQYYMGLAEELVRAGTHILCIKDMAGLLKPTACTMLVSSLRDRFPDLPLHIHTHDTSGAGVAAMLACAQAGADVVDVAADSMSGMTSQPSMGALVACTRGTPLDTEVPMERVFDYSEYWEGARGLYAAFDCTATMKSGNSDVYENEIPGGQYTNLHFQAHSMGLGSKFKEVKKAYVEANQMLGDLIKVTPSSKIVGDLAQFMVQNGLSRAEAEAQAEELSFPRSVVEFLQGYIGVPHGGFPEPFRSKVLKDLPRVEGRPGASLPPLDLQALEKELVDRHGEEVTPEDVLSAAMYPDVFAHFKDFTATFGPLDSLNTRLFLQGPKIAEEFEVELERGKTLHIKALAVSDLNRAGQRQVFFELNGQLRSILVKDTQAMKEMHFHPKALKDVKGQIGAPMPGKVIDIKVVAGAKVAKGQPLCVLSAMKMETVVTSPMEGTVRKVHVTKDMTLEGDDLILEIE

[2] = biological target: proteins of HEK293T cells transiently overexpressing caspase-6 (Homo sapiens, UniProt Q9BT22); conditions: exp_ref Probe; protein ALG1 (Q9BT22); analysis C6
[3] = biological target: T2, proteins of HEK293T cells transiently overexpressing caspase-6 (Homo sapiens, UniProt Q8WUM4); conditions: protein PDCD6IP (Q8WUM4); exp_ref Probe; analysis C6
T2 sequence (Q8WUM4 1-868): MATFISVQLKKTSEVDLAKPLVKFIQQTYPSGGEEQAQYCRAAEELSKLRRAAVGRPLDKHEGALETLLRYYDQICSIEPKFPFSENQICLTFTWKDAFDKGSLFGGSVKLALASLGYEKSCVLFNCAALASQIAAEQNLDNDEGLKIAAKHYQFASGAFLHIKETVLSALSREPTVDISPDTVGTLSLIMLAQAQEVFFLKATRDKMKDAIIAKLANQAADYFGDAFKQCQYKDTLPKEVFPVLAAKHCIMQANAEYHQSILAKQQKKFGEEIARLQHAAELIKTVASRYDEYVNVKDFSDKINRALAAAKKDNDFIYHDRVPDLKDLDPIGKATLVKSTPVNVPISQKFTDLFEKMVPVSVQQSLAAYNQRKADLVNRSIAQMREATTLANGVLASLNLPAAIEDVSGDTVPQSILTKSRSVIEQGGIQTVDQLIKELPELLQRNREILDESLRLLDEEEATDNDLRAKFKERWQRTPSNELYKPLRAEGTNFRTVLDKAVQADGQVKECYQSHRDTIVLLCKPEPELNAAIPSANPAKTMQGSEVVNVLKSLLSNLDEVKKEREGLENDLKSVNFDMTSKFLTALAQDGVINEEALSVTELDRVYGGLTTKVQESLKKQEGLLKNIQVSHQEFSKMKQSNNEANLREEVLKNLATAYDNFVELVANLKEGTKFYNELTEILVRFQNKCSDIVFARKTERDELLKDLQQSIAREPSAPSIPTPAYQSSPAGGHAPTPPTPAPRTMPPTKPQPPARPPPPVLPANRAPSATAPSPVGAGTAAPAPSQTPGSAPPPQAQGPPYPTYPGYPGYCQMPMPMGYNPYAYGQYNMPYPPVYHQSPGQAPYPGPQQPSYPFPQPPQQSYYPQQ

[4] = biological target: proteins of HEK293T cells transiently overexpressing caspase-6 (Homo sapiens, UniProt P12277); conditions: protein CKB (P12277)
[5] = biological target: proteins of HEK293T cells transiently overexpressing caspase-6 (Homo sapiens, UniProt P33993); conditions: Probe; protein MCM7 P33993
[6] = biological target: proteins of HEK293T cells transiently overexpressing caspase-6 (Homo sapiens, UniProt P12004); conditions: protein PCNA (P12004)
[7] = biological target: proteins of HEK293T cells transiently overexpressing caspase-6 (Homo sapiens, UniProt P14868); conditions: exp_ref Probe; protein DARS (P14868); analysis C6
[8] = biological target: proteins of HEK293T cells transiently overexpressing caspase-6 (Homo sapiens, UniProt O43143); conditions: exp_ref Probe; protein DHX15 (O43143); analysis C6
[9] = biological target: proteins of HEK293T cells transiently overexpressing caspase-6 (Homo sapiens, UniProt P04183); conditions: exp_ref Probe; protein TK1 (P04183); analysis C6
[10] = biological target: proteins of HEK293T cells transiently overexpressing caspase-6 (Homo sapiens, UniProt Q14566); conditions: exp_ref Probe; protein MCM6 (Q14566); analysis C6
Sequence of proteins of HEK293T cells transiently overexpressing caspase-6 (Homo sapiens, UniProt Q14566) (Q14566 whole entry): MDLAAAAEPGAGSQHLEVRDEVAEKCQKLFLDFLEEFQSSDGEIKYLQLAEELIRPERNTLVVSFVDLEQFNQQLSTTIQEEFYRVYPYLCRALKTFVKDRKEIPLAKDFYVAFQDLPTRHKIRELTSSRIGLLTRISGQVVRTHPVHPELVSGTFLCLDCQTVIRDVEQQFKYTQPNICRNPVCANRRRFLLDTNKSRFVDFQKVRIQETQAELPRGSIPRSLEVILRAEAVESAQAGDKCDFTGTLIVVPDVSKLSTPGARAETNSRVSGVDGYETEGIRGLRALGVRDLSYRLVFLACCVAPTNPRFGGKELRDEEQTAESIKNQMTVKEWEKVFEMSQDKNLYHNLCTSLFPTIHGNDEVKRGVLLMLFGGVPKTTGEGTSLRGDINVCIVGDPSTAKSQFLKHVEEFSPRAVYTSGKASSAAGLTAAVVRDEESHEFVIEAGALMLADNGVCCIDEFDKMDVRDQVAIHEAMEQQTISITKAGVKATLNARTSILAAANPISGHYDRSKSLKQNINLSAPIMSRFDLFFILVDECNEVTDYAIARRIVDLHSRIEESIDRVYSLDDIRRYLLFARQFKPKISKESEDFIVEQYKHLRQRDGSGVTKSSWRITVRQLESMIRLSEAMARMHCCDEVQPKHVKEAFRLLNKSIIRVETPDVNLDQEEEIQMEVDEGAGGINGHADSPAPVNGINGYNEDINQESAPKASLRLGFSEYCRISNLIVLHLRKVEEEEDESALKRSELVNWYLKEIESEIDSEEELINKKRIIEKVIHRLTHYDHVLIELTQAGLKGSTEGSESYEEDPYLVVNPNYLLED

Sequence of proteins of HEK293T cells transiently overexpressing caspase-6 (Homo sapiens, UniProt P12277) (P12277 whole entry): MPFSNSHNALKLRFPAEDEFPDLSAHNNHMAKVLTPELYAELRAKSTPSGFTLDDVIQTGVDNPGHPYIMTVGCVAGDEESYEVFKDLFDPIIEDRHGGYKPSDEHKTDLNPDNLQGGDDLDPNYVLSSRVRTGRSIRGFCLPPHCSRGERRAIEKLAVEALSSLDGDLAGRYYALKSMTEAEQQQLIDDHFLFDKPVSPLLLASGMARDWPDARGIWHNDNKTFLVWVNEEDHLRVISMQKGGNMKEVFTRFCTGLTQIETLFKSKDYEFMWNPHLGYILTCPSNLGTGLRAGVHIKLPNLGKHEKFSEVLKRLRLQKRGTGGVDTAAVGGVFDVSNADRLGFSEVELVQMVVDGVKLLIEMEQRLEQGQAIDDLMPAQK
Sequence of proteins of HEK293T cells transiently overexpressing caspase-6 (Homo sapiens, UniProt P12004) (P12004 whole entry): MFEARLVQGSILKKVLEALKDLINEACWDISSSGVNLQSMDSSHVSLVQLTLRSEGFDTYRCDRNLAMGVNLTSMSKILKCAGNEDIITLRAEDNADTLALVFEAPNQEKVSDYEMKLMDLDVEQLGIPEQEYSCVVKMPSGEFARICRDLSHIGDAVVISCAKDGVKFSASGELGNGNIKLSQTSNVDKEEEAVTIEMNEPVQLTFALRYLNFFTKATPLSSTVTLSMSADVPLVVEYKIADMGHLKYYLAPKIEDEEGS
Sequence of proteins of HEK293T cells transiently overexpressing caspase-6 (Homo sapiens, UniProt Q9BT22) (Q9BT22 whole entry): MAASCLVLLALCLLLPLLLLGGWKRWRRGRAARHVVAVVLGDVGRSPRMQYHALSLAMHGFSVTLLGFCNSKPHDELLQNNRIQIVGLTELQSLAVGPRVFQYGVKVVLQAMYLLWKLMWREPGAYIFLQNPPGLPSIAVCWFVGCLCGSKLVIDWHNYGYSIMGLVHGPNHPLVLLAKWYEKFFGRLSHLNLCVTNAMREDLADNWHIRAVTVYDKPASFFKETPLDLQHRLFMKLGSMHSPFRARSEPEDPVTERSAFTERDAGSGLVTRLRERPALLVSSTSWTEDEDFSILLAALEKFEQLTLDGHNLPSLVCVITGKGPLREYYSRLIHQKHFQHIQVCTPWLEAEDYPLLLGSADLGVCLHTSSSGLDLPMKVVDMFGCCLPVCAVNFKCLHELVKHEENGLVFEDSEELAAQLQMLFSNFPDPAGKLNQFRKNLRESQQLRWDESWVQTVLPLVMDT
Sequence of proteins of HEK293T cells transiently overexpressing caspase-6 (Homo sapiens, UniProt O43143) (O43143 whole entry): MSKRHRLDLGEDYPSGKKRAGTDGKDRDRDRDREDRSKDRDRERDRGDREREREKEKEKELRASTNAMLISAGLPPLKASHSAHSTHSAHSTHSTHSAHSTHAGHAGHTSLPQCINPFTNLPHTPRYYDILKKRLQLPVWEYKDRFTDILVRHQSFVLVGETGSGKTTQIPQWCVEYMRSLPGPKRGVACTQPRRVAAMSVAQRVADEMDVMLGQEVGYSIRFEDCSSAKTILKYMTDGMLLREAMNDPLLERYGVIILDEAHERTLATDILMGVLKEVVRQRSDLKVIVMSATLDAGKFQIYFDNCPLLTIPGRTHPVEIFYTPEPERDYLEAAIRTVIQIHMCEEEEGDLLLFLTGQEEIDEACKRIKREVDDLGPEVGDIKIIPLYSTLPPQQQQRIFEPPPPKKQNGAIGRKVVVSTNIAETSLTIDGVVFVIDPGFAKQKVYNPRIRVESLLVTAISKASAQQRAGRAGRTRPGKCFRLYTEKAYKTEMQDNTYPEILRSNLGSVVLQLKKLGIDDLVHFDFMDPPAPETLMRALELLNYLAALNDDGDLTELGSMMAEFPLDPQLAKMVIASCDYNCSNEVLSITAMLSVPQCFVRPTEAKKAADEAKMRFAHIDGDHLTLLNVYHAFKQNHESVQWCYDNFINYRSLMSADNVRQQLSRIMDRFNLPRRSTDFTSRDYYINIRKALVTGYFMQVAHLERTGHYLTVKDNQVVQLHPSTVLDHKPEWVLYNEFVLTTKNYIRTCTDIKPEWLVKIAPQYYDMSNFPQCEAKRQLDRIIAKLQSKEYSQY
Sequence of proteins of HEK293T cells transiently overexpressing caspase-6 (Homo sapiens, UniProt P04183) (P04183 whole entry): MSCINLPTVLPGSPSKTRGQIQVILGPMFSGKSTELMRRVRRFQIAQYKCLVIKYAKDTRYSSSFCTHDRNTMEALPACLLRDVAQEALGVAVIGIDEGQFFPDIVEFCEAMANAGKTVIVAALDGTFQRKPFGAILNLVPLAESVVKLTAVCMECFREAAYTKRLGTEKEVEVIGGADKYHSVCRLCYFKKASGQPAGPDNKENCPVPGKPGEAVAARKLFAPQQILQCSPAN
Sequence of proteins of HEK293T cells transiently overexpressing caspase-6 (Homo sapiens, UniProt P33993) (P33993 whole entry): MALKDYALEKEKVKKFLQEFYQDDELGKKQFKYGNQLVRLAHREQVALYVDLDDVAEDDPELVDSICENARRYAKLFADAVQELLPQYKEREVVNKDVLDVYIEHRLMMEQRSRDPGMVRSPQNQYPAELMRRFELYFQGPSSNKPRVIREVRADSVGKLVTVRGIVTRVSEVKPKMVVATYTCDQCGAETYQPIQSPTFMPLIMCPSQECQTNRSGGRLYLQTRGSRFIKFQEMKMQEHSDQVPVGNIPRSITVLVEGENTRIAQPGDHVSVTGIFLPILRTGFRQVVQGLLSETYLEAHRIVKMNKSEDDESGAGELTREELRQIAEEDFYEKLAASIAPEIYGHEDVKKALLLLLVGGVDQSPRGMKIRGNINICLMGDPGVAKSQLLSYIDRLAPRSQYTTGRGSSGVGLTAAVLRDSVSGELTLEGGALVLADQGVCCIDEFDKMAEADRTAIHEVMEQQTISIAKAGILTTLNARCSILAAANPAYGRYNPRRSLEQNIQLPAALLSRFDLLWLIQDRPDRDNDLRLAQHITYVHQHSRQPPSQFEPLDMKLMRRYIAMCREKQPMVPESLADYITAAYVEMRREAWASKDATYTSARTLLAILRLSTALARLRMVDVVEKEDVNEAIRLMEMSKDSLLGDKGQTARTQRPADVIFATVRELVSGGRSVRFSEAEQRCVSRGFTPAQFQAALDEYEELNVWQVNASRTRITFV
Sequence of proteins of HEK293T cells transiently overexpressing caspase-6 (Homo sapiens, UniProt P14868) (P14868 whole entry): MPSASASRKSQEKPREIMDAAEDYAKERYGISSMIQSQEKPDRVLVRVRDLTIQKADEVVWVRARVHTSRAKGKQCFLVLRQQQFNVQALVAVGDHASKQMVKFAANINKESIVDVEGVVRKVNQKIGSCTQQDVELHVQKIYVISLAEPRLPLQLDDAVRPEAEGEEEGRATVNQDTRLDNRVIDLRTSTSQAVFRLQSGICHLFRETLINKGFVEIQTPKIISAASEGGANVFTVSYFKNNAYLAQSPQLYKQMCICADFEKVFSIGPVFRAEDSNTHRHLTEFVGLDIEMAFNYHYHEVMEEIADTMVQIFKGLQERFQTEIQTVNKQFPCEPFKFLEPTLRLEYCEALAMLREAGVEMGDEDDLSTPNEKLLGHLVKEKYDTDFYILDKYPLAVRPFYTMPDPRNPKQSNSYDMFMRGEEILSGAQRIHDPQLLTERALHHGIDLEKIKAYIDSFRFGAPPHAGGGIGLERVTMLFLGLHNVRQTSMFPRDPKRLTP

Compound `C#CCOc1ccc([C@@H]2C[C@@H](C(=O)Nc3ccc(OC(F)(F)F)cc3)CN(S(=O)(=O)C=C)C2)cc1` (relative stereo) [13-t] has an enrich.exp.med ([1]; Probe, protein PC P11498) of -2.146, an enrich.exp.med.lin ([1]; protein PC (P11498)) of 0.2259 and an enrich.exp.med.log2 ([1]; protein PC (P11498)) of -2.146. It also gave an enrich.exp.med [2] of 0.4836, an enrich.exp.med [3] of 1.9 and an enrich.exp.med ([4]; exp_ref Probe, analysis C6) of 0.5567. For the same compound, the enrich.exp.med.lin [4] was 1.4709, the enrich.exp.med.log2 [4] was 0.5567 and the enrich.exp.med [5] was -1.046. It also gave an enrich.exp.med ([6]; exp_ref Probe, analysis C6) of 0.8638, an enrich.exp.med.lin [6] of 1.82 and an enrich.exp.med.log2 [6] of 0.8638. For the same compound, the enrich.exp.med [7] was 0.4884, the enrich.exp.med [8] was 1.187 and the enrich.exp.med [9] was 1.0337. The enrich.exp.med [10] was 0.05791.
